Test results: patent US20260356851A1, “TRICYCLIC COMPOUNDS AND USES THEREOF” (HUTCHMED LIMITED, priority 2023, published 2026)

Key:
Type in all cases: cell-based
[1] = target: T1, pERK1/2 (Thr202/Tyr204), NCI-1H358 (KRAS G12C) (Homo sapiens, UniProt P01116, G12C); experiment: Assay of intracellular pERK1/2 (Thr202/Tyr204) phosphorylation in NCI-H358 cells (KRAS G12C); settings: pERK1/2, 2 days, read-out: NCI-H358 (KRAS G12C) IC50
T1 construct: pERK1/2 HTRF read-out
How it was run: (§1)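 HTRF detection of Thr202/Tyr204-phosphorylated ERK1/2 (665/615 nm ratio) in lysates from cells treated 2 days with serially 3-fold diluted compound.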

[2] = target: T2, pERK1/2 (Thr202/Tyr204), PANC-1 (KRAS G121D) (Homo sapiens, UniProt P01116, G12D); experiment: Assay of intracellular pERK1/2 (Thr202/Tyr204) phosphorylation in PANC-1 cells (KRAS G12D); settings: pERK1/2, 2 days, read-out: PANC-1 (KRAS G12D) IC50
T2 construct: pERK1/2 HTRF read-out
T2 sequence (P01116 1-188 isoform P01116-2 G12D): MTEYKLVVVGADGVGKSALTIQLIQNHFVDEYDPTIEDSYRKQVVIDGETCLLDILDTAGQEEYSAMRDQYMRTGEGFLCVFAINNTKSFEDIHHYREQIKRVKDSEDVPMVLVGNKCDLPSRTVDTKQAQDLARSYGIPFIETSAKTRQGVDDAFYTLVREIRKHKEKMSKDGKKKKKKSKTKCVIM
How it was run: as §1

[3] = target: T3, pERK1/2 (Thr202/Tyr204), NCI-1H441 (KRAS G12V) (Homo sapiens, UniProt P01116, G12V); experiment: Assay of intracellular pERK1/2 (Thr202/Tyr204) phosphorylation in NCI-H441 cells (KRAS G12V); settings: pERK1/2, 2 days, read-out: NCI-H441 (KRAS G12V) IC50
T3 construct: pERK1/2 HTRF read-out
T3 sequence (P01116 1-188 isoform P01116-2 G12V): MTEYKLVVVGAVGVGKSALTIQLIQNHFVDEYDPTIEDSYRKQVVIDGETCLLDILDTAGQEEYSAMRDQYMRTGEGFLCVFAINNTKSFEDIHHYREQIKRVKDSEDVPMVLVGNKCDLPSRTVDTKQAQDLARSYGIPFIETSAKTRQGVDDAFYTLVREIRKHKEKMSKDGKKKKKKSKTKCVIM
How it was run: as §1

T1 sequence (P01116 1-188 isoform P01116-2 G12C): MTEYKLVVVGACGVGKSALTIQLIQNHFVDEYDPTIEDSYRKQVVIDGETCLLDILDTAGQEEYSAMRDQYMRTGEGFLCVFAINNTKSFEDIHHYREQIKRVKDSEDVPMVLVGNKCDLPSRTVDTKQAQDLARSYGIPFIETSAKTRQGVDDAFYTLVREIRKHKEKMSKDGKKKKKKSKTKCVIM

IC50 [1] | IC50 [2] | IC50 [3] | Structure (SMILES)
57 nM | > 100 nM | > 100 nM | C[C@H](c1cccnc1N)N1c2nc(OC[C@@H]3C[C@@H](F)CN3C)nc3c(F)c(-c4cc(N)cc(Cl)c4C(F)(F)F)nc(c23)OC[C@@H]1C (single isomer, unassigned) [Compound 286, 3-((R or S)-1-((S)-5-(5-amino-3-chloro-2-(trifluoromethyl)phenyl)-4-fluoro-2-(((2S,4R)-4-fluoro-1-methylpyrrolidin-2-yl)methoxy)-9-methyl-8,9-dihydro-1H-7-oxa-1,3,6,10-tetraazacyclohepta[de]naphthalen-10-yl)ethyl)pyridin-2-amine]
0.2 nM | 2 nM | 0.4 nM | CC(c1cccnc1N)N1c2nc(OC[C@@H]3C[C@@H](F)CN3C)nc3c(F)c(-c4cc(N)cc(Cl)c4C(F)(F)F)nc(c23)OC[C@@H]1C (single isomer, unassigned) [Compound 287, 3-((R or S)-1-((S)-5-(5-amino-3-chloro-2-(trifluoromethyl)phenyl)-4-fluoro-2-(((2S,4R)-4-fluoro-1-methylpyrrolidin-2-yl)methoxy)-9-methyl-8,9-dihydro-10H-7-oxa-1,3,6,10-tetraazacyclohepta[de]naphthalen-10-yl)ethyl)pyridin-2-amine]
0.4 nM | 0.3 nM | 0.5 nM | CC(c1cccnc1N)N1c2nc(OC[C@@]34CCCN3C[C@H](F)C4)nc3c(F)c(-c4c(C(F)(F)F)c(Cl)cc5[nH]ncc45)nc(c23)OC[C@@H]1C (single isomer, unassigned) [Compound 330]
2 nM | 34 nM | 5 nM | CC(c1cccnc1N)N1c2nc(OC[C@@]34CCCN3C[C@H](F)C4)nc3c(F)c(-c4c(Cl)c(C(F)(F)F)cc5[nH]ncc45)nc(c23)OC[C@@H]1C (single isomer, unassigned) [Compound 361]
14 nM | 41 nM | 25 nM | CC(c1cccnc1N)N1c2nc(OC[C@@]34CCCN3C[C@H](F)C4)nc3c(F)c(-c4c5c(cc6[nH]ncc46)CCC5=O)nc(c23)OC[C@@H]1C (single isomer, unassigned) [Compound 373]
3 nM | 2 nM | 5 nM | Cc1c(C(F)(F)F)c(-c2nc3c4c(nc(OC[C@@]56CCCN5C[C@H](F)C6)nc4c2F)N(C(C)c2cccnc2N)[C@@H](C)CO3)c2c(Cl)n[nH]c2c1F (single isomer, unassigned) [Compound 382]
0.1 nM | 1 nM | 0.4 nM | [2H]C1([2H])CC[C@@]2(C([2H])([2H])Oc3nc4c5c(nc(-c6cc(N)c(F)c(C)c6C(F)(F)F)c(F)c5n3)OCCN4C(C)c3cccnc3N)C[C@@]([2H])(F)CN12 (single isomer, unassigned; diastereomer 1) [Compound 178, (*)3-(1-(5-(5-amino-4-fluoro-3-methyl-2-(trifluoromethyl)phenyl)-4-fluoro-2-(((2R or 2S,7aS)-2-fluorotetrahydro-1H-pyrrolizin-7a(5H)-yl-2,5,5-d3)methoxy-d2)-8,9-dihydro-10H-7-oxa-1,3,6,10-tetraazacyclohepta[de]naphthalen-10-yl)ethyl)pyridin-2-amine (diastereomer 1)]
0.2 nM | 0.8 nM | 0.6 nM | Cc1c(F)c(N)cc(-c2nc3c4c(nc(OC[C@@]56CCCN5C[C@@]5(CC5(F)F)C6)nc4c2F)N(C(C)c2cccnc2N)CCO3)c1C(F)(F)F (single isomer, unassigned; diastereomer 1) [Compound 238, (*)3-(1-(5-(5-amino-4-fluoro-3-methyl-2-(trifluoromethyl)phenyl)-2-(((1R or 1S,7a′S)-2,2-difluorodihydro-1′H,3′H-spiro[cyclopropane-1,2′-pyrrolizin]-7a′(5′H)-yl)methoxy)-4-fluoro-8,9-dihydro-10H-7-oxa-1,3,6,10-tetraazacyclohepta[de]naphthalen-10-yl)ethyl)pyridin-2-amine (diastereomer 1)]
0.2 nM | 13 nM | 0.9 nM | Cc1c(F)c(N)cc(-c2nc3c4c(nc(OCC56CC(F)CN5CC(F)C6)nc4c2F)N(C(C)c2cccnc2N)CCO3)c1C(F)(F)F (single isomer, unassigned; diastereomer 1) [Compound 241, (*)3-(1-(5-(5-amino-4-fluoro-3-methyl-2-(trifluoromethyl)phenyl)-2-(((2R or 2S,6R or 6S)-2,6-difluorotetrahydro-1H-pyrrolizin-7a(5H)-yl)methoxy)-4-fluoro-8,9-dihydro-10H-7-oxa-1,3,6,10-tetraazacyclohepta[de]naphthalen-10-yl)ethyl)pyridin-2-amine (diastereomer 1)]
0.2 nM | 10 nM | 0.5 nM | CC(c1cccnc1N)N1CCOc2nc(-c3cc(N)c(F)c(Cl)c3C(F)(F)F)c(F)c3nc(OCC45CC(F)CN4CC(F)C5)nc1c23 (single isomer, unassigned; diastereomer 1) [Compound 245, (*)3-(1-(5-(5-amino-3-chloro-4-fluoro-2-(trifluoromethyl)phenyl)-2-(((2R or 2S,6R or 6S)-2,6-difluorotetrahydro-1H-pyrrolizin-7a(5H)-yl)methoxy)-4-fluoro-8,9-dihydro-10H-7-oxa-1,3,6,10-tetraazacyclohepta[de]naphthalen-10-yl)ethyl)pyridin-2-amine (diastereomer 1)]
23 nM | > 100 nM | 49 nM | CC(c1cccnc1N)N1c2nc(OC[C@@]34CCCN3C[C@H](F)C4)nc3c(F)c(-c4c(C(F)(F)F)ccc5c4CCCN5)nc(c23)OC[C@@H]1C (single isomer, unassigned; diastereomer 1) [Compound 338, (*)3-(1-((5R or 5S,9S)-4-fluoro-2-(((2R,7aS)-2-fluorotetrahydro-1H-pyrrolizin-7a(5H)-yl)methoxy)-9-methyl-5-(6-(trifluoromethyl)-1,2,3,4-tetrahydroquinolin-5-yl)-8,9-dihydro-10H-7-oxa-1,3,6,10-tetraazacyclohepta[de]naphthalen-10-yl)ethyl)pyridin-2-amine (diastereomer 1)]
1 nM | 20 nM | 3 nM | [2H]C1([2H])CC[C@@]2(C([2H])([2H])Oc3nc4c5c(nc(-c6cc(N)c(F)c(C)c6C(F)(F)F)c(F)c5n3)OCCN4C(C)c3cccnc3N)C[C@]([2H])(F)CN12 (single isomer, unassigned; diastereomer 2) [Compound 179, (*)3-(1-(5-(5-amino-4-fluoro-3-methyl-2-(trifluoromethyl)phenyl)-4-fluoro-2-(((2R or 2S,7aS)-2-fluorotetrahydro-1H-pyrrolizin-7a(5H)-yl-2,5,5-d3)methoxy-d2)-8,9-dihydro-10H-7-oxa-1,3,6,10-tetraazacyclohepta[de]naphthalen-10-yl)ethyl)pyridin-2-amine (diastereomer 2)]
0.3 nM | 2 nM | 0.4 nM | Cc1c(F)c(N)cc(-c2nc3c4c(nc(OC[C@@]56CCCN5C[C@]5(CC5(F)F)C6)nc4c2F)N(C(C)c2cccnc2N)CCO3)c1C(F)(F)F (single isomer, unassigned; diastereomer 2) [Compound 239, (*)3-(1-(5-(5-amino-4-fluoro-3-methyl-2-(trifluoromethyl)phenyl)-2-(((1R or 1S,7a′S)-2,2-difluorodihydro-1′H,3′H-spiro[cyclopropane-1,2′-pyrrolizin]-7a′(5′H)-yl)methoxy)-4-fluoro-8,9-dihydro-10H-7-oxa-1,3,6,10-tetraazacyclohepta[de]naphthalen-10-yl)ethyl)pyridin-2-amine (diastereomer 2)]
0.4 nM | > 100 nM | 3 nM | Cc1c(F)c(N)cc(-c2nc3c4c(nc(OCC56CC(F)CN5CC(F)C6)nc4c2F)N(C(C)c2cccnc2N)CCO3)c1C(F)(F)F (single isomer, unassigned; diastereomer 2) [Compound 242, (*)3-(1-(5-(5-amino-4-fluoro-3-methyl-2-(trifluoromethyl)phenyl)-2-(((2R or 2S,6R or 6S)-2,6-difluorotetrahydro-1H-pyrrolizin-7a(5H)-yl)methoxy)-4-fluoro-8,9-dihydro-10H-7-oxa-1,3,6,10-tetraazacyclohepta[de]naphthalen-10-yl)ethyl)pyridin-2-amine (diastereomer 2)]
0.4 nM | 63 nM | 2 nM | CC(c1cccnc1N)N1CCOc2nc(-c3cc(N)c(F)c(Cl)c3C(F)(F)F)c(F)c3nc(OCC45CC(F)CN4CC(F)C5)nc1c23 (single isomer, unassigned; diastereomer 2) [Compound 246, (*)3-(1-(5-(5-amino-3-chloro-4-fluoro-2-(trifluoromethyl)phenyl)-2-(((2R or 2S,6R or 6S)-2,6-difluorotetrahydro-1H-pyrrolizin-7a(5H)-yl)methoxy)-4-fluoro-8,9-dihydro-10H-7-oxa-1,3,6,10-tetraazacyclohepta[de]naphthalen-10-yl)ethyl)pyridin-2-amine (diastereomer 2)]
